Test results: patent US20240307345A1, “R-MDMA and S-MDMA TO ASSIST PSYCHOTHERAPY” (Universitatsspital Basel, priority 2022, published 2024)
Entries after “also recorded” stand apart in the source; their conditions may differ.

Assays:
healthy subjects [1] = assay: Alteration of mind and mystical-type effects on 5D-ASC and MEQ questionnaires; type: in vivo, human; conditions: for acute mystical-type experiences on the 5D-ASC scale: 24 subjects
Procedure: (§1) Study design: The present study compares the acute subjective, physiological and endocrine effects of S-MDMA (125 mg), R-MDMA (125 and 250 mg), MDMA (125 mg) using a placebo-controlled double-blind 5-period cross-over design in 24 healthy subjects. Conditions are 1.) R-MDMA 125 mg, 2). R-MDMA 250 mg, 3) S-MDMA 125 mg, 4) MDMA 125 mg, 5) placebo. Treatment order is counterbalanced. Washout periods between substance administrations are at least 10 days. Study days include a 10-hour study session with a subsequent single measurement (short visit) the next morning (24 hours after drug administration).
(§2) Psychometric assessments: Visual Analog Scale (VAS): VASs is repeatedly used to assess subjective alterations in consciousness over time. Single scales are presented as 100 mm horizontal lines marked with “not at all” on the left and “extremely” on the right. The following VAS items are used: “any drug effect”, “good drug effect”, “bad drug effect”, “stimulated”, “liking”, “happy”, “content”, “talkative”, “open”, “trust”, “feeling close to others”, “anxiety”, “alteration of vision”, “alterations of hearing”, “sounds seem to influence what I see”, “alteration of sense of time”, “the boundaries between myself and my surroundings seem to blur”, “want to be with other people”, and “want to be alone”. Scales are administered before and repeatedly after substance administration and take approximately 2 minutes to fill out. The maximal ratings (Emax, 0-100) and areas under the effect-time curve (AUEC) are defined for each VAS and Emax and AUEC values compared between treatments using analysis of variance. 5-Dimensions of Altered States of Consciousness (5D-ASC): The 5 Dimensions of Altered States of Consciousness (5D-ASC) Scale is a questionnaire containing visual analog scales for 94 items (Studerus et al., 2010). The instrument contains five scales assessing mood, anxiety, derealization, depersonalization, changes in perception, auditory alterations, and reduced vigilance. The scale is well-validated (Studerus et al., 2010) and used internationally to evaluate effects of many other psychoactive substances. The overall psychedelic experience is reflected by the total […] score. Each item of the scale is scored on a 0-100 mm VAS. The attribution of the individual items to the subscales of the 5D-ASC is analyzed according to (Studerus et al., 2010). The 5D-ASC scale is administered once at the end of the session and subjects are instructed to retrospectively rate peak alterations that have been experienced during the study session. Adiective Mood Rating Scale (AMRS): The Adjective Mood Rating Scale (AMRS or EWL60S) is a 60-item Likert scale that allows repeated assessment of mood in 6 dimensions: Activation, inactivation, well-being, anxiety/depressed mood, extra- and introversion, and emotional excitability. The German EWL60S version is used. The AMRS consists of subscales measuring “activation,” “positive mood,” “extraversion,” “introversion,” “inactivation,” and “emotional excitability. The scale has previously been used to evaluate effects of many other psychoactive substances. Emax and AUEC scores will be defined for each subscale and compared between treatments using analysis of variance. The AMRS is administered repeatedly throughout the study session and once 3 days after each session. States of Consciousness Questionnaire (SCQ): In the SCQ, 100-items are rated on a six-point scale. Forty-three items embedded into this questionnaire comprise the Mystical Experience Questionnaire (MEQ) (MacLean et al., 2011) which is sensitive to the effects of psychedelic substances such as LSD. […]

healthy subjects [2] = assay: Effects on mood on the Adjective Mood Rating Scale (AMRS); type: in vivo, human
Procedure: as §1, §2

healthy subjects [3] = assay: Autonomic effects (blood pressure, heart rate, body temperature); type: in vivo, human
Procedure: as §1
Autonomic measures: Blood pressure, heart rate, and body temperature are recorded at baseline and repeatedly throughout the session. Blood pressure (systolic and diastolic) and heart rate are measured with an automatic oscillometric device. Body temperature is measured with an ear thermometer. Emax is determined for each of the measures and for each study session. These Emax values are then compared between drug conditions using analysis of variance.

healthy subjects [4] = assay: Mood after effects day 1-3 (BDI score, SCL-90-R GSI score); type: in vivo, human
Procedure: as §1
Psychometric assessments: Visual Analog Scale (VAS): VASs is repeatedly used to assess subjective alterations in consciousness over time. Single scales are presented as 100 mm horizontal lines marked with “not at all” on the left and “extremely” on the right. […] Each item of the scale is scored on a 0-100 mm VAS. The attribution of the individual items to the subscales of the 5D-ASC is analyzed according to (Studerus et al., 2010). […]

healthy subjects [5] = assay: Endocrine effects (plasma prolactin and cortisol); type: in vivo, human
Procedure: as §1
Endocrine effects: Cortisol and prolactin: Cortisol and prolactin are determined as biological markers of serotonergic activity (Seifritz et al., 1996). Plasma concentrations are determined by routine immune assays. Oxytocin and vasopressin: MDMA increase circulating oxytocin (Hysek et al., 2014a) and vasopressin or its precursor copeptin (Simmler et al., 2011). These neurohormones are thought to mediate neurocognitive and adverse effects of MDMA and the role of R-versus S-MDMA remains to be explored. Oxytocin and vasopressin plasma levels are measured before and after substance administration. Concentrations are determined using immunoassays.

healthy subjects [6] = assay: Clinical cross-over study, overall comparison of the substances; type: in vivo, human; conditions: for dose of more equivalent strength to 125 mg (±)-MDMA: based on the results of the present study; for acute subjective effects and adverse effects: conclusion over the doses tested
Procedure: as §1

mice [7] = conditions: cited from earlier work
animals [8] = conditions: cited from earlier work
serotonin = conditions: rat, in vivo; cited from earlier work
[9] = administered repeatedly at high doses; cited from earlier work
rhesus monkeys = conditions: indicative of abuse-liability; cited from earlier work
model of PTSD = conditions: cited from earlier work
mice [10] = conditions: cited from earlier work; remark: listed apart in the source
[11] = test system: dopamine (DA), norepinephrine (NE), serotonin (5-HT), and oxytocin; conditions: preclinical research; cited from earlier work
animals [12] = conditions: various animal studies; cited from earlier work
monkeys = conditions: cited from earlier work
mice [13] = conditions: cited from earlier work; remark: listed apart in the source
[14] = 125 mg, compared with placebo (and 125 mg R-MDMA)

CN[C@@H](C)Cc1ccc2c(c1)OCO2 [S-MDMA, S(+)-MDMA]
acute mystical-type experiences on the 5D-ASC scale (healthy subjects [1]; 125 mg): comparable effects with no significant differences | psychedelic effects on the 5D-ASC and the MEQ questionnaires (healthy subjects [1]; [14]): comparable and overall greater psychedelic effects | effects on the AMRS (healthy subjects [2]; 125 mg): comparable effects | AMRS “Emotional excitation” (healthy subjects [2]; 125 mg S-MDMA versus both doses of R-MDMA): more | body temperature (healthy subjects [3]; 125 mg): increased similarly; also recorded: increased body temperature only moderately | increases in blood pressure (healthy subjects [3]; 125 mg S-MDMA versus (±)-MDMA and both doses of R-MDMA): higher increases | heart rate (healthy subjects [3]; 125 mg S-MDMA versus the other substance conditions): only significantly higher compared with 125 mg of R-MDMA | heart rate (healthy subjects [3]; 125 mg, versus placebo): increase heart rate comparably and more than with placebo | BDI and GSI scores (healthy subjects [4]; 125 mg, one to three days after substance administration): only increased | prolactin release (healthy subjects [5]; 125 mg S-MDMA compared to (±)-MDMA and 125 mg R-MDMA): increased more | cortisol release (healthy subjects [5]; 125 mg S-MDMA compared to (±)-MDMA and both doses of R-MDMA): increased cortisol release more | dose of more equivalent strength to 125 mg (±)-MDMA (healthy subjects [6]): 100 mg | acute subjective effects and adverse effects (healthy subjects [6]): overall comparable | onset of interoceptive effects (mice [7]; compared with R-MDMA): faster | hyperthermia (animals [8]): induced hyperthermia | depleting serotonin (serotonin): more effective | neurotoxicity [9]: more neurotoxic than R-MDMA | reinstatement of amphetamine responding (rhesus monkeys): reinstated amphetamine responding | conditioned fear during extinction training (model of PTSD): reduced conditioned fear during extinction training but not thereafter | lethal doses (mice [10]): similar | release of dopamine (DA), norepinephrine (NE), serotonin (5-HT), and oxytocin [11]: mainly releases | social interaction (animals [12]): only slightly with S-MDMA or not at all

CN[C@H](C)Cc1ccc2c(c1)OCO2 [R-MDMA, R(−)-MDMA]
acute mystical-type experiences on the 5D-ASC scale (healthy subjects [1]; 125 mg): only significantly induced mystical-type effects on the 5D-ASC total score and the “Reductions of vigilance” scale | psychedelic effects on the 5D-ASC and the MEQ questionnaires (healthy subjects [1]; [14]): only significantly induced the 5D-ASC total score and the dimension “Reductions of vigilance” on the 5D-ASC and “positive mood”, “Ineffability” and the MEQ30 total score | acute mystical-type experiences on the 5D-ASC scale (healthy subjects [1]; 250 mg): comparable effects with no significant differences | psychedelic effects on the 5D-ASC and the MEQ questionnaires (healthy subjects [1]; 250 mg, compared with placebo and 125 mg R-MDMA): comparable and overall greater psychedelic effects | effects on the AMRS (healthy subjects [2]; 125 mg): comparable effects | AMRS “Extraversion” (healthy subjects [2]; 125 mg R-MDMA versus (±)-MDMA and S-MDMA): less | effects on the AMRS (healthy subjects [2]; 250 mg): comparable effects | AMRS “Introversion” (healthy subjects [2]; 250 mg R-MDMA versus (±)-MDMA): significant more | body temperature (healthy subjects [3]; 125 mg): did not increase body temperature significantly compared to placebo | body temperature (healthy subjects [3]; 250 mg): increased similarly; also recorded: increased body temperature as much as (±)-MDMA and S-MDMA; also recorded: increased body temperature only moderately | heart rate (healthy subjects [3]; 250 mg, versus placebo): increase heart rate comparably and more than with placebo | mood after administration (healthy subjects [4]; R-MDMA compared with S-MDMA): did not depress mood after administration | cardio and psychostimulant effects / properties (healthy subjects [6]; R-MDMA (125 and 250 mg) compared with S-MDMA): lower cardio and psychostimulant effects; also recorded: less cardiostimulant and psychostimulant properties | dose of more equivalent strength to 125 mg (±)-MDMA (healthy subjects [6]): 300 mg | acute subjective effects and adverse effects (healthy subjects [6]): overall comparable | effect on social interaction and connectedness (healthy subjects [6]; within the dose range tested (125 and 250 mg)): less pronounced | duration of discriminative stimulus effects (mice [7]): shortest | conditioned fear when retention of extinction was assessed (model of PTSD): reduced conditioned fear | peak effects on prosocial behaviors (monkeys): greater peak effects than S-MDMA | peak effects on prosocial behaviors (mice [13]): greater peak effects than S-MDMA | social interaction (animals [12]): Increased social interaction
